The subject of this assay is P388 leukemia ip, CD2F1 mice, survival T/C. The experiment in a line: NCI In Vivo Anticancer Drug Screen. Data for tumor model P388 Leukemia (intraperitoneal) in CD2F1 (CDF1) mice. The following applies: endpoint: median survival time, higher = longer survival. Summed up:
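Mice carrying the transplanted tumor received test compound or vehicle. Survival was recorded in each group, and the value is the treated-group measurement divided by that of the vehicle-treated control group.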

The mark [1] stands for this setting: dose: 50.0 mg/kg/injection, schedule: Q01DX005 (ip), vehicle: Klucel (hydroxypropylcellulose) (HPC).
Where [2] appears, read: dose: 100.0 mg/kg/injection, schedule: Q01DX005 (ip), vehicle: Klucel (hydroxypropylcellulose) (HPC).
[3] abbreviates: dose: 200.0 mg/kg/injection, schedule: Q01DX005 (ip), vehicle: Klucel (hydroxypropylcellulose) (HPC).
The mark [4] stands for this setting: dose: 50.0 mg/kg/injection, schedule: Q01DX005 (ip), vehicle: saline with Tween-80.
Where [5] appears, read: dose: 100.0 mg/kg/injection, schedule: Q01DX005 (ip), vehicle: saline with Tween-80.
Setting [6] is: dose: 200.0 mg/kg/injection, schedule: Q01DX005 (ip), vehicle: saline with Tween-80.
The mark [7] stands for this setting: dose: 50.0 mg/kg/injection, schedule: Q01DX009 (ip), vehicle: Klucel (hydroxypropylcellulose) (HPC).
Setting [8] is: dose: 100.0 mg/kg/injection, schedule: Q01DX009 (ip), vehicle: Klucel (hydroxypropylcellulose) (HPC).
Where [9] appears, read: dose: 60.0 mg/kg/injection, schedule: Q01DX005 (ip), vehicle: Klucel (hydroxypropylcellulose) (HPC).
[10] abbreviates: dose: 120.0 mg/kg/injection, schedule: Q01DX005 (ip), vehicle: Klucel (hydroxypropylcellulose) (HPC).
Where [11] appears, read: dose: 240.0 mg/kg/injection, schedule: Q01DX005 (ip), vehicle: Klucel (hydroxypropylcellulose) (HPC).
The mark [12] stands for this setting: dose: 12.5 mg/kg/injection, schedule: Q01DX009 (ip), vehicle: Klucel (hydroxypropylcellulose) (HPC).
The mark [13] stands for this setting: dose: 25.0 mg/kg/injection, schedule: Q01DX009 (ip), vehicle: Klucel (hydroxypropylcellulose) (HPC).
[14] abbreviates: dose: 50.0 mg/kg/injection, schedule: Q01DX009 (ip), vehicle: saline.
Setting [15] is: dose: 100.0 mg/kg/injection, schedule: Q01DX009 (ip), vehicle: saline.
Setting [16] is: dose: 200.0 mg/kg/injection, schedule: Q01DX009 (ip), vehicle: saline.
The mark [17] stands for this setting: dose: 50.0 mg/kg/injection, schedule: Q01DX009 (ip), vehicle: saline with Tween-80.

Where “and” joins values, the source holds several entries; their conditions need not be identical. Equal entries are not always repeated. Toxic doses and inconclusive results are not listed.

For `COc1ccc(OC)c(CCc2cc(OC)ccc2OC)c1`, the T/C by setting is: (dose: 0.78 mg/kg/injection, schedule: Q01DX009 (ip), vehicle: DMSO) 88 % of control; (dose: 6.25 mg/kg/injection, schedule: Q01DX009 (ip), vehicle: DMSO) 92 % of control; (dose: 25.0 mg/kg/injection, schedule: Q01DX009 (ip), vehicle: DMSO) 94 % of control; (dose: 50.0 mg/kg/injection, schedule: Q01DX009 (ip), vehicle: DMSO) 109 % of control.

Consider `CC(C)(C)OC(=O)NC(CCCCNC(=O)OCC1c2ccccc2-c2ccccc21)C(=O)O` (centres undefined), for which the T/C under setting [1] is 103 % of control, the T/C under setting [2] is 99 % of control and the T/C under setting [3] is 103 % of control.

`COc1ccc(Cc2nnc(NN)[nH]c2=O)cc1OC`: the T/C is, setting by setting: (dose: 60.0 mg/kg/injection, schedule: Q01DX005 (ip), vehicle: saline with Tween-80) 101 % of control; (dose: 120.0 mg/kg/injection, schedule: Q01DX005 (ip), vehicle: saline with Tween-80) 97 % of control.

As to `O=c1cc(-c2ccc3ccccc3n2)oc2ccc(Cl)cc12`, the T/C is, setting by setting: (dose: 10.0 mg/kg/injection, schedule: Q01DX009 (ip), vehicle: saline) 107 % of control; (dose: 20.0 mg/kg/injection, schedule: Q01DX009 (ip), vehicle: saline) 93 % of control; (dose: 40.0 mg/kg/injection, schedule: Q01DX009 (ip), vehicle: saline) 89 % of control.

As to `O=C(NC(=O)c1c(F)cccc1F)Nc1ccc(C(O)(C(F)(F)F)C(F)(F)F)cc1`, the T/C is 102 % of control under setting [4], 100 % of control under setting [5] and 109 % of control under setting [6].

Consider `CC1(C(=O)O)NCCc2cc(O)c(O)cc21` (centres undefined), for which the T/C is, setting by setting: under setting [1], 104 % of control; under setting [2], 104 % of control; under setting [3], 103 % of control.

For the molecule `COc1ccc2sc(C)cc(=O)c2c1`, the T/C by setting is: (dose: 50.0 mg/kg/injection, schedule: Q01DX009 (ip), vehicle: saline + Tween-80 + alcohol) 106 % of control; (dose: 100.0 mg/kg/injection, schedule: Q01DX009 (ip), vehicle: saline + Tween-80 + alcohol) 109 % of control; (dose: 200.0 mg/kg/injection, schedule: Q01DX009 (ip), vehicle: saline + Tween-80 + alcohol) 109 % of control.

Take `CCCOc1ccc2c(NCCCCCCNc3c4ccccc4nc4cc(OCCC)ccc34)c3ccccc3nc2c1`: the T/C reads like this: (dose: 0.62 mg/kg/injection, schedule: Q## X009 (ip), vehicle: lactic acid) 121 % of control; (dose: 2.5 mg/kg/injection, schedule: Q## X009 (ip), vehicle: lactic acid) 120 % of control; (dose: 5.0 mg/kg/injection, schedule: Q## X009 (ip), vehicle: lactic acid) 105 % of control.

`O=C(Sc1ccccc1)N1CCN(C(=O)Sc2ccccc2)CC1`: the T/C under setting [7] was 100 % of control; the T/C under setting [8] is 100 % of control; the T/C (dose: 200.0 mg/kg/injection, schedule: Q01DX009 (ip), vehicle: Klucel (hydroxypropylcellulose) (HPC)) is 109 % of control.

As to `CC(C)(C)OC(=O)NC(Cc1ccc(O)cc1)C(=O)ON1C(=O)CCC1=O` (centres undefined), the T/C is, setting by setting: under setting [1], 100 % of control; under setting [2], 106 % of control; under setting [3], 108 % of control.

With `COc1ccc(N(CN2C(=O)CCC2=O)CS(=O)(=O)c2ccc(Cl)cc2)cc1`, the T/C is 97 % of control under setting [9], 90 % of control under setting [10] and 100 % of control under setting [11].

In the case of `O=[N+]([O-])c1c(-c2ccccc2)csc1SSc1scc(-c2ccccc2)c1[N+](=O)[O-]`, the T/C is 103 % of control (dose: 100.0 mg/kg/injection, schedule: Q04DX003 (ip), vehicle: saline with Tween-80); 96 % of control (dose: 200.0 mg/kg/injection, schedule: Q04DX003 (ip), vehicle: saline with Tween-80); 100 % of control (dose: 400.0 mg/kg/injection, schedule: Q04DX003 (ip), vehicle: saline with Tween-80).

Turning to `C/C=C(\C)C(=O)OC1C(O)C(C)(C)C2C3C(=O)C=C(C)C2C3(C)C1OC(=O)/C(C)=C/C` (centres undefined), the T/C runs as follows: under setting [12], 103 % of control; under setting [13], 100 % of control; under setting [7], 103 % of control; under setting [8], 103 % of control.

`Cc1ccno1`: the T/C was 105 % of control under setting [14]; 105 % of control under setting [15]; 105 % of control under setting [16]; 100 % of control (dose: 400.0 mg/kg/injection, schedule: Q01DX009 (ip), vehicle: saline).

As to `COc1ccc(-c2c(C)oc(C)c2C(C)=O)cc1OC`, the T/C was 98 % of control under setting [9], 102 % of control under setting [10] and 101 % of control under setting [11].

Turning to `CCCCCC(C)[P+](c1ccccc1)(c1ccccc1)c1ccccc1` (centres undefined), the T/C (dose: 0.39 mg/kg/injection, schedule: Q01DX009 (ip), vehicle: saline with Tween-80) is 101 % of control; the T/C (dose: 0.78 mg/kg/injection, schedule: Q01DX009 (ip), vehicle: saline with Tween-80) was 114 % of control and 120 % of control.

As to `CN(C)c1ccc2ccc(=O)[nH]c2c1`, the T/C reads like this: under setting [4], 95 % of control; under setting [5], 108 % of control; under setting [6], 99 % of control.

Turning to `COC1C(=O)OC(=O)C1OC` (centres undefined), the T/C runs as follows: (dose: 15.0 mg/kg/injection, schedule: Q01DX005 (ip), vehicle: saline) 109 % of control and 117 % of control; (dose: 30.0 mg/kg/injection, schedule: Q01DX005 (ip), vehicle: saline) 102 % of control and 117 % of control; (dose: 60.0 mg/kg/injection, schedule: Q01DX005 (ip), vehicle: saline) 100 % of control and 109 % of control and 90 % of control.

Consider `CCOc1cccc(/C=N\Nc2nc(=O)cc(C(=O)OC)s2)c1O`, for which the T/C is, setting by setting: under setting [4], 97 % of control; under setting [5], 104 % of control; under setting [6], 107 % of control.

For `CN1CNC(=O)NC1`, the T/C runs as follows: under setting [14], 107 % of control; under setting [15], 100 % of control and 106 % of control; under setting [16], 99 % of control and 101 % of control.

As for `CCOC(=O)c1ccc(NC)cc1`, the T/C reads like this: under setting [17], 105 % of control; (dose: 100.0 mg/kg/injection, schedule: Q01DX009 (ip), vehicle: saline with Tween-80) 102 % of control; (dose: 200.0 mg/kg/injection, schedule: Q01DX009 (ip), vehicle: saline with Tween-80) 118 % of control.

For the molecule `O=NN(CCCl)C(=O)NC1CC2CCC1C2` (centres undefined), the T/C reads like this: (dose: 12.5 mg/kg/injection, schedule: Q01DX009 (ip), vehicle: saline with Tween-80) 195 % of control; (dose: 25.0 mg/kg/injection, schedule: Q01DX009 (ip), vehicle: saline with Tween-80) 250 % of control; (dose: 25.0 mg/kg/injection, schedule: Q04DX003 (ip), vehicle: saline with Tween-80) 225 % of control; (dose: 33.0 mg/kg/injection, schedule: Q04DX003 (ip), vehicle: saline with Tween-80) 213 % of control; under setting [17], 109 % of control; (dose: 50.0 mg/kg/injection, schedule: Q04DX003 (ip), vehicle: saline with Tween-80) 204 % of control and 295 % of control. Besides, under “dose: 75.0 mg/kg/injection, schedule: Q04DX003 (ip), vehicle: saline with Tween-80”, the T/C is 90 % of control.

Take `OC1OCC(Cc2ccc3c(c2)OCO3)C1Cc1ccc2c(c1)OCO2` (centres undefined): the T/C reads like this: (dose: 100.0 mg/kg/injection, schedule: Q04DX003 (ip), vehicle: other) 95 % of control; (dose: 200.0 mg/kg/injection, schedule: Q04DX003 (ip), vehicle: other) 90 % of control; (dose: 400.0 mg/kg/injection, schedule: Q04DX003 (ip), vehicle: other) 90 % of control.

On to `C=CC(=O)NC(=O)Nc1ccccc1Cl`, for which the T/C (dose: 6.25 mg/kg/injection, schedule: Q01DX009 (ip), vehicle: Klucel (hydroxypropylcellulose) (HPC)) was 102 % of control; the T/C under setting [12] is 106 % of control; the T/C under setting [13] is 109 % of control and 118 % of control.

Turning to `CC(=O)Oc1cc(C)c(OC(C)=O)c(OC(C)=O)c1C`, the T/C runs as follows: (dose: 100.0 mg/kg/injection, schedule: Q04DX002 (ip), vehicle: Klucel (hydroxypropylcellulose) (HPC)) 102 % of control; (dose: 200.0 mg/kg/injection, schedule: Q04DX002 (ip), vehicle: Klucel (hydroxypropylcellulose) (HPC)) 90 % of control.

These data come from PubChem BioAssay AID330 (DTP/NCI, 2004).
